The results in this text go back to PubChem BioAssay AID1699 (The Scripps Research Institute Molecular Screening Center, 2009).

The structures appear in SMILES notation. Calls of active or inactive are those of the source.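 How the source made its calls: active means IC50 on parental Ba/F3 cells at or below 10 µM; inactive means IC50 above 10 µM.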

In general, IC50 refers to the concentration that gives 50% inhibition.

In this experiment the test system is parental Ba/F3 viability, CellTiter-Glo ATP luminescence. Put plainly: cytotoxicity in parental murine Ba/F3 cells – cell-based, luminescence, counter-screen for JAK2V617F inhibitor project, dose response (AID 1699). (In general: The purpose of a counterscreen is to sort out artefacts and off-target activity.)
Regarding `Cc1[nH]c2ccccc2c(=O)c1C(=O)/C=C/c1ccccc1`, the 50% inhibitory concentration (IC50) is 3.12 µM.

On to `Cc1c(Cc2ccccc2)c(=O)oc2c(O)c(O)ccc12`, for which the half-maximal inhibitory concentration (IC50) is 8.62 µM.

`O=C(Nc1cccc2c1[nH]c1ccccc12)C(F)(F)F`: the IC50 was 13.7 µM (inactive).

As to `Cc1cccc(OCC(=O)Nc2cc(C)ccc2O)c1`, the IC50 was > 40 µM (inactive).

For `O=C(CCl)N=c1sccn1Cc1ccccc1Cl`, the 50% inhibitory concentration (IC50) is 1.11 µM.
